Data as given in article PMC9945865, “Anticancer evaluation of new organometallic ruthenium(II) flavone complexes” (RSC Medicinal Chemistry, 2022).

Legend:
[1] = test system: HUVEC cells; test: Cytotoxicity on HUVECs, trypan blue exclusion assay; type: cell-based, human; conditions: 40 μM, 24 h, % of control, p > 0.05 vs control
Description: The biocompatibility of flavones (1 and 2)[30] alongside their ruthenium(II) metal complexes (1Ru and 2Ru) with HUVEC cells was established using the trypan blue exclusion assay. A concentration four times higher (i.e. 40 μM) than the highest concentration used for the tube formation antiangiogenic evaluation study (i.e. 10 μM) was selected for this cytotoxic assay.
Cytotoxic activity of treatments on HUVECs using trypan blue exclusion assay.[55] HUVECs were seeded in 96 well plates at 1 × 10^5 cells per mL and cultured for 24 h. Cells were then treated with either luteolin, the synthesised derivatives at 40 μM or culture medium (control) for 24 h. After 24 h, solutions were removed and cells washed with 100 μL PBS followed by the addition of 50 μL trypsin–EDTA and incubation for 5 min to detach the cells. 50 μL of EGM-2 media was added to the wells. 50 μL aliquots of the cell suspension were mixed with equal volume of trypan blue (TB) 0.2% v/v (prepared from 0.4% TB diluted with PBS) then the cells were counted using a haemocytometer. Number of viable and dead cells were counted manually and % cell viability of each treatment was expressed as % of control using the equation:% Cell Viability = (Cell viability in treatment/Cell viability in control) × 100where cell viability was calculated as follows:Cell Viability = Number of viable cells/Total number of cells(viable and dead).

[2] = test system: HUVECs; test: Matrigel endothelial cell tube formation assay (VEGF-mediated); type: cell-based, human; conditions: 12 h; for tube formation inhibition activity: 1 μM
Description: In our recent study,[30] the 4′-chlorophenylflavone derivatives 1 and 2 have shown promising antiangiogenic activities in vitro. Herein, the effect of complexation with a ruthenium(II) metal ligand on the antiangiogenic activity of 1 and 2 was evaluated using the Matrigel tube formation assay that assesses many of the main steps involved in the process of angiogenesis. Inhibition of VEGF-mediated tube formation by the tested substrates was observed after 12 h of treatment on HUVECs at 1 μM and 10 μM concentrations. Luteolin is a natural flavone well known for its high antiangiogenic activity both in vitro and in vivo[34] and as such was used in this study as a reference standard. In accordance with reported data, luteolin inhibited the measured elements of tube formation by 30% compared to the positive control.[34,35] […] The ability of Ru(II) organometallic derivatives to target tumour metastasis has been widely reported both in vitro and in vivo.[3,6,9,36] Thus, based on the preliminary antiangiogenic trends observed for our target Ru(II) complexes (1Ru and 2Ru) and their parent flavones (1 and 2), we further investigated their antiproliferative and antimetastatic potential on the estrogen receptor positive breast cancer cell line (MCF-7) and the more aggressive triple negative cell line (MDA-MB-231).
HUVECs were cultured until confluency and then serum starved (0.1% serum) for 24 h. The tube formation assay followed the reported assay.[56] Briefly, 96 well plates were coated with 50 μL of Corning™ Matrigel™ GFR Membrane Matrix at 4 °C and incubated at 37 °C for 1–2 h to solidify. Serum starved HUVECs were seeded on the solidified Matrigel at 3 × 10^5 cells per mL and treated with medium containing VEGF (10 ng mL^−1) and either luteolin or one of the synthesised derivatives (at 1 μM or 10 μM). Plates were incubated for 12 h and photos covering the whole well area were taken using 4× magnification power of an inverted light microscope. Number of junctions, number and length of segments and master segments were quantified from the taken Images via the Angiogenesis Analyzer plugin[57] in ImageJ software.[58] […] Data was represented as a ratio to the positive control (VEGF enriched).

[3] = test system: MCF-7; test: Cell viability, 72 h MTT assay; type: cell-based, human; conditions: MCF-7, 72 h MTT, mean ± SEM, n = 3
Description: (§1) The unique chemical features and coordination geometries of metal ions can add several additional binding interactions that can potentially enhance their anticancer properties for example by allowing intercalation and exploitation of their redox potential.[24] […] In that context, coordination of derivative (2) with a Ru(II) metal ligand is a promising approach to further improve its antiproliferative activity.
(§2) MCF-7 and MDA-MB-231 cells were seeded at a density of 4 × 10^4 and 2 × 10^4 cells per mL, respectively, into 96 well plates and incubated to allow the attachment for 24 h. After 24 h, the cells were treated with one of the synthesised derivatives at range of concentrations (0–100 μM) for 67 h. After 67 h, 20 μL of MTT (5 mg mL^−1) solution in PBS was added to each well and the cells were incubated for 5 h. The purple crystals formed were dissolved in 100 μL of DMSO and the plates were read at 560 nm using a SPECTRA max UV spectrometer (Bio-Rad). The data represented are the mean of the three individual experiments.

[4] = test system: MDA-MB-231; test: Cell viability, 72 h MTT assay; type: cell-based, human; conditions: MDA-MB-231, 72 h MTT, mean ± SEM, n = 3
Description: as §1, §2

[5] = Temperature dependent UV-vis stability of the complexes; type: physicochemical; parameters: key to Δλ260: change in absorbance at 260 nm (absorbance units); conditions: for λ260 (absorbance at 260 nm) / UV-vis stability profile: 0.1% DMSO/ddH2O; for UV-vis stability profile: temperature increments 20-80 °C, 6 h time interval
Description: Wavelength (nm) Wavelength (nm)
Figure 3. Temperature dependant UV-VIS spectra of (A) 1Ru and (B) 2Ru in 0.1%DMSO/ddH2O solution recorded
over a 6 h time interval.
Table 1. λ260a and Δ λ260b of complexes 1Ru and 2Ru at 20 °C – 80 °C

SMILES	Cell viability of HUVECs [1] [%]	tube formation inhibition activity [2]	overall tube formation inhibition ([2]; 10 μM, insignificant (p > 0.05)) [%]	IC50 [3] [µM]	IC50 [4] [µM]	Δλ260 ([5]; 20 °C (baseline))	λ260 (absorbance at 260 nm) ([5]; 20 °C)	Δλ260 ([5]; 40 °C minus 20 °C)	λ260 (absorbance at 260 nm) ([5]; 40 °C)	Δλ260 ([5]; 60 °C minus 20 °C)	λ260 (absorbance at 260 nm) ([5]; 60 °C)	Δλ260 ([5]; 80 °C minus 20 °C)	λ260 (absorbance at 260 nm) ([5]; 80 °C)	UV-vis stability profile [5]	reduction in the number of junctions ([2]; 10 μM, p < 0.01) [%]	reduction in number and length of master segments ([2]; 10 μM, p < 0.05) [%]
Cc1ccc(C(C)C)cc1.O=c1cc(-c2ccc(Cl)cc2)oc2cc(O)cc([O-])c12.[Cl-].[Ru+2] [1Ru, chlorido [(5-oxo-κO)-7-hydroxy-2-(4′-chlorophenyl)-4H-chromen-4-onato-κO] (η^6-p-cymene)ruthenium(II)]	~100	total loss of their parents' tube formation inhibition activity	22	66.2 ± 5	> 100	0	0.0435	0.00072	0.04422	0.00174	0.04525	0.00388	0.04738	sufficient stability	–	–
Cc1ccc(C(C)C)cc1.[Cl-].[O-]c1cc(O)cc2oc(-c3ccc(Cl)cc3)cc(=S)c12.[Ru+2] [2Ru, chlorido [(5-oxo-κO)-7-hydroxy-2-(4′-chlorophenyl)-4H-chromen-4-thionato-κO] (η^6-p-cymene)ruthenium(II)]	~100	total loss of their parents' tube formation inhibition activity	–	> 100	> 100	0	0.03108	0.0013	0.02973	0.0021	0.02902	0.0028	0.02832	sufficient stability	40	35
